experiment: HILIC, Waters ACQUITY UPLC BEH HILIC, 150 × 2.1 mm, 1.7 µm, 40 °C, 0.6 mL/min, estimated dead time 0.55 min; A: water + 0.1% formic acid + 20 mM ammonium formate, pH 3.5; B: acetonitrile + 0.1% formic acid, pH 3; gradient (min/%B) 0/95 0.1/95 4.6/80 5.5/50 7.0/50 7.1/95 7.2/95 7.3/95 7.4/95 7.5/95 7.6/95 7.7/95 7.8/95 12.50/95 12.65/95; conditions: stereoisomer not certain

| SMILES | LC retention time [min] |
| --- | --- |
| C[N+](C)(C)CC(O)(CC(=O)[O-])C(=O)Cc1ccccc1 (configuration not stated) [Phenylacetyl carnitine] | 4.47 |
| CC(=O)NC(CCCCN)C(=O)O [N-alpha-acetyl-L-lysine] | 5.44 |
| NC(N)=NCCCC(N)C(=O)O (configuration not stated) [Arginine] | 5.92 |
| Cn1cnc(CC(N)C(=O)O)c1 (configuration not stated) [1-Methylhistidine] | 6.35 |
| Cn1c[n+](C2OC(CO)C(O)C2O)c2nc(N)[nH]c(=O)c21 (configuration not stated) [7-Methylguanosine] | 1.97 |
| NC(N)=NCCCCC(N)C(=O)O (configuration not stated) [Homoarginine] | 5.92 |
| CC(=O)NCCCC[C@H](N)C(=O)O [N6-Acetyl-L-lysine] | 5.44 |
| O=c1[nH]cc(C2OC(CO)C(O)C2O)c(=O)[nH]1 (configuration not stated) [Pseudouridine] | 1.25 |
| CCCCCCCCCCCC(=O)OC(CC(=O)[O-])C[N+](C)(C)C (configuration not stated) [Lauroylcarnitine CAR(12:0)] | 3.97 |
| Cn1cncc1CC(N)C(=O)O (configuration not stated) [3-Methylhistidine] | 6.09 |
| CC(=O)NCCCNCCCCN [N1-Acetylspermidine] | 5.99 |
| CN(C)C(N)=NCCC[C@H](N)C(=O)O [Asymmetric Dimethylarginine] | 5.91 |
| CCCCCCCCCCCCCC(=O)OC(CC(=O)[O-])C[N+](C)(C)C (configuration not stated) [Tetradecanoylcarnitine CAR(14:0)] | 3.78 |
| CC(=O)NCCCNCCCCNCCCNC(C)=O [N1,N12-Diacetylspermine] | 6.1 |
| Nc1ncnc2c1ncn2C1OC(CO)C(O)C1O (configuration not stated) [Adenosine] | 1.75 |
| C[N+]1(C)CCCC1C(=O)[O-] (configuration not stated) [Proline Betaine] | 4.91 |
| CCCCCCCCCCCCCCCCCC(=O)OC(CC(=O)[O-])C[N+](C)(C)C (configuration not stated) [Stearoylcarnitine CAR(18:0)] | 3.74 |
| CN(C)c1nc2c(ncn2C2OC(CO)C(O)C2O)c(=O)[nH]1 (configuration not stated) [N2,N2-Dimethylguanosine] | 1.9 |
| CN(C)CC(=O)O [N,N-Dimethylglycine] | 4.64 |
| NC(Cc1cnc[nH]1)C(=O)O (configuration not stated) [Histidine] | 6.15 |
| CCCCCC(=O)OC(CC(=O)[O-])C[N+](C)(C)C (configuration not stated) [Hexanoylcarnitine CAR(6:0)] | 4.34 |
| NC(=O)c1ccc[n+]([O-])c1 [Nicotinamide N-oxide] | 2.02 |
| C[N+](C)(C)CCCCC(N)C(=O)[O-] [N6,N6,N6-Trimethyl-L-lysine] | 6.16 |

| SMILES | LC retention time [min] |
| --- | --- |
| C[n+]1cccc(C(N)=O)c1 [1-Methylnicotinamide] | 4.08 |
| NC(Cc1ccccc1)C(=O)O (configuration not stated) [Phenylalanine] | 3.78 |
| NC(Cc1c[nH]c2ccccc12)C(=O)O (configuration not stated) [Tryptophan] | 3.82 |
| Cn1cncc1CC(NC(=O)CCN)C(=O)O (configuration not stated) [Anserine] | 6.1 |
| C=CC1CN2CCC1CC2C(O)c1ccnc2ccc(OC)cc12 (configuration not stated) [Quinine] | 3.03 |
| C[N+](C)(C)CCCC(=O)[O-] [4-Trimethylammoniobutanoic acid (deoxycarnitine)] | 4.91 |
| CCCCCCCCCC(=O)OC(CC(=O)[O-])C[N+](C)(C)C (configuration not stated) [Decanoylcarnitine CAR(10:0)] | 3.92 |
| CC(CCC(=O)NCCS(=O)(=O)O)C1CCC2C3C(O)CC4CC(O)CCC4(C)C3CCC12C (configuration not stated) [Tauroursodeoxycholic acid] | 1.75 |
| O=c1[nH]cnc2c1ncn2C1OC(CO)C(O)C1O (configuration not stated) [Inosine] | 1.61 |
| CC(=O)NCCCN1CCCC1=O [N-Acetylisoputreanine-gamma-lactam] | 1.83 |
| NC(=O)CCC(N)C(=O)O (configuration not stated) [Glutamine] | 5.06 |
| NCCS(=O)(=O)O [Taurine] | 2.61 |
| Cc1ncc(C[n+]2csc(CCO)c2C)c(N)n1 [Thiamine] | 5.49 |
| CC(C)CC(=O)OC(CC(=O)[O-])C[N+](C)(C)C (configuration not stated) [Isovalerylcarnitine] | 4.39 |
| O=C(O)C=Cc1cnc[nH]1 [Urocanic acid] | 1.3 |
| CN(C)C(=N)N=C(N)N [1,1-Dimethylbiguanide (Metformin)] | 3.42 |
| CC(=O)NCCCNCCCC(=O)O [N-Acetylisoputreanine] | 4.93 |
| CC(CCC(=O)NCCS(=O)(=O)O)C1CCC2C3C(O)CC4CC(O)CCC4(C)C3CC(O)C12C (configuration not stated) [Taurocholic Acid] | 2.47 |
| CC(CCC(=O)NCC(=O)O)C1CCC2C3C(O)CC4CC(O)CCC4(C)C3CCC12C (configuration not stated) [Glycoursodeoxycholic acid] | 1.85 |
| C[N+](C)(C)[O-] [Trimethylamine N-oxide] | 4.18 |
| CC(CCC(=O)NCCS(=O)(=O)O)C1CCC2C3CCC4CC(O)CCC4(C)C3CC(O)C12C (configuration not stated) [Taurodeoxycholic Acid] | 1.81 |
| NC(Cc1ccc(OS(=O)(=O)O)cc1)C(=O)O (configuration not stated) [O-Sulfotyrosine] | 3.2 |
| C[N+](C)(C)CC(CC(=O)[O-])OC(=O)c1ccccc1 (configuration not stated) [Benzoylcarnitine] | 4.45 |

| SMILES | LC retention time [min] |
| --- | --- |
| Cn1c(N)nc2c(ncn2C2OC(CO)C(O)C2O)c1=O (configuration not stated) [1-Methylguanosine] | 1.73 |
| CN1CCCCC1C(=O)O (configuration not stated) | 4.59 |
| CN1C(=O)CCC1c1cccnc1 (configuration not stated) [Cotinine] | 1.4 |
| CCCCCCCC(=O)OC(CC(=O)[O-])C[N+](C)(C)C (configuration not stated) [Octanoylcarnitine CAR(C8:0)] | 4.13 |
| c1cncc(C2CCCN2)c1 (configuration not stated) [Nornicotine] | 4.22 |
| CCCCCCCCCCCCCCCC(=O)OC(CC(=O)[O-])C[N+](C)(C)C (configuration not stated) [Palmitoylcarnitine CAR(C16:0)] | 3.78 |
| O=C(O)C1CCCCN1 (configuration not stated) [Pipecolic acid] | 4.48 |
| CC12CCC(=O)C=C1CCC1C2C(O)CC2(C)C1CCC2(O)C(=O)CO (configuration not stated) [Cortisol] | 0.71 |
| Cn1cnc2c(ncn2C2OC(CO)C(O)C2O)c1=O (configuration not stated) [N1-Methylinosine] | 1.44 |
| CN1C(=O)CCC1c1ccc[n+]([O-])c1 (configuration not stated) [Cotinine N-oxide] | 2.87 |
| C[S+](CCC(N)C(=O)O)CC1OC(n2cnc3c(N)ncnc32)C(O)C1O (configuration not stated) [S-Adenosylmethionine] | 6.25 |
| CC(N)C(=O)O (configuration not stated) [Alanine] | 4.57 |
| Cn1c(=O)[nH]c2ncn(C)c2c1=O [Paraxanthine] | 0.948 |
| CCCCC(=O)OC(CC(=O)[O-])C[N+](C)(C)C (configuration not stated) [Valerylcarnitine] | 4.39 |
| CN1CC(=O)NC1=N [Creatinine] | 2.51 |
| CC(=O)N[C@@H]1C(O)O[C@H](CO)[C@@H](O)[C@@H]1O (stereo partly drawn) [N-Acetyl-D-mannosamine] | 1.81 |
| O=c1[nH]cnc2nc[nH]c12 [Hypoxanthine] | 1.59 |
| Nc1nc2ncc(C(O)C(O)CO)nc2c(=O)[nH]1 (configuration not stated) [Neopterin] | 2.32 |
| Nc1nc2nc[nH]c2c(=O)[nH]1 [Guanine] | 2.17 |
| CN(CC(=O)O)C(=N)N [Creatine] | 5.06 |
| CSCCC(N)C(=O)O (configuration not stated) [Methionine] | 4.11 |
| Cn1ccc(=O)c(C(N)=O)c1 [N1-methyl-4-pyridone-3-carboxamide] | 1.5 |
| NC(N)=NCCCC(=O)O [4-Guanidinobutanoic acid] | 3.84 |

| SMILES | LC retention time [min] |
| --- | --- |
| C[N+](C)(C)CC(CC(=O)[O-])OC(=O)CCCC(=O)O (configuration not stated) [Glutarylcarnitine CAR(5:0-DC)] | 5.1 |
| CC(=O)C[N+](C)(C)C [Trimethylaminoacetone] | 3.51 |
| CCC(C)C(=O)OC(CC(=O)[O-])C[N+](C)(C)C (configuration not stated) [2-methylbutyrylcarnitine] | 4.39 |
| C[N+](C)(C)CC(O)CC(=O)[O-] (configuration not stated) [Carnitine] | 5.32 |
| CC(=O)Nc1ccc(O)cc1 [Acetaminophen] | 0.71 |
| NC(CCCCn1c(C=O)ccc1CO)C(=O)O (configuration not stated) [Pyralline] | 4.28 |
| NCCC(=O)NC(Cc1cnc[nH]1)C(=O)O (configuration not stated) [Carnosine] | 6.01 |
| CC(O)CC(=O)OC(CC(=O)[O-])C[N+](C)(C)C (configuration not stated) [3-Hydroxybutyrylcarnitine CAR(4:0-OH)] | 5.4 |
| NC(=O)NCCCC(N)C(=O)O (configuration not stated) [Citrulline] | 5.74 |
| OCC1OC(OC2(CO)OC(CO)C(O)C2O)C(O)C(O)C1O (configuration not stated) [Sucrose] | 2.27 |
| C=CC1=C(C)C(C=c2[nH]c(=Cc3[nH]c(C=C4NC(=O)C(C)=C4C=C)c(C)c3CCC(=O)O)c(CCC(=O)O)c2C)=NC1=O [Biliverdin] | 0.732 |
| CC=C(C)C(=O)OC(CC(=O)[O-])C[N+](C)(C)C (configuration not stated) [Tiglylcarnitine CAR(5:1)] | 4.54 |
| CC(=O)Nc1ccn(C2OC(CO)C(O)C2O)c(=O)n1 (configuration not stated) [N4-Acetylcytidine] | 1.27 |
| Cn1cnc2c(ncn2C2OC(CO)C(O)C2O)c1=N (configuration not stated) [1-Methyladenosine] | 4.1 |
| Cn1cc(C(N)=O)ccc1=O [N1-methyl-2-pyridone-5-carboxamide] | 1.24 |
| CCC(=O)OC(CC(=O)[O-])C[N+](C)(C)C (configuration not stated) [Propionylcarnitine CAR(3:0)] | 4.82 |
| CC(=O)NCCCCN [N-Acetylputrescine] | 4.4 |
| CN1CCCC1C(=O)O (configuration not stated) [N-methylproline] | 4.48 |
| O=C(O)CNC(=O)c1ccccc1 [Hippuric acid] | 1.16 |
| C[N+](C)(C)CC(=O)[O-] [Betaine] | 4.78 |
| CC(CCC(=O)NCC(=O)O)C1CCC2C3CCC4CC(O)CCC4(C)C3CCC12C (configuration not stated) [Glycolithocholic acid] | 1.22 |
| Nc1c(O)cccc1C(=O)O [3-Hydroxyanthranilic acid] | 0.69 |
| C[n+]1cccc(C(=O)[O-])c1 [Trigonelline] | 4.85 |

Reference: the RepoRT retention time repository
